Where two headings read alike, the source gives them in different places.
Legend:
[1] = molecular target: USP-VP16 chimeric receptor polypeptide (Drosophila; herpes simplex virus) (UniProt P20153); test: cell-based or functional assay
[2] = molecular target: T1, receptor polypeptides EcR and USP (Drosophila melanogaster, UniProt P34021); test: Luciferase reporter transactivation, 35S/EcR + 35S/USP with (EcRE)5-Bz1/Luc co-transformed into maize cells; format: cell-based; conditions: approximately 48 hours
T1 construct: expressed in transfected cells; host or cells: maize suspension cells (microprojectile bombardment)
T1 sequence (P34021 1-878): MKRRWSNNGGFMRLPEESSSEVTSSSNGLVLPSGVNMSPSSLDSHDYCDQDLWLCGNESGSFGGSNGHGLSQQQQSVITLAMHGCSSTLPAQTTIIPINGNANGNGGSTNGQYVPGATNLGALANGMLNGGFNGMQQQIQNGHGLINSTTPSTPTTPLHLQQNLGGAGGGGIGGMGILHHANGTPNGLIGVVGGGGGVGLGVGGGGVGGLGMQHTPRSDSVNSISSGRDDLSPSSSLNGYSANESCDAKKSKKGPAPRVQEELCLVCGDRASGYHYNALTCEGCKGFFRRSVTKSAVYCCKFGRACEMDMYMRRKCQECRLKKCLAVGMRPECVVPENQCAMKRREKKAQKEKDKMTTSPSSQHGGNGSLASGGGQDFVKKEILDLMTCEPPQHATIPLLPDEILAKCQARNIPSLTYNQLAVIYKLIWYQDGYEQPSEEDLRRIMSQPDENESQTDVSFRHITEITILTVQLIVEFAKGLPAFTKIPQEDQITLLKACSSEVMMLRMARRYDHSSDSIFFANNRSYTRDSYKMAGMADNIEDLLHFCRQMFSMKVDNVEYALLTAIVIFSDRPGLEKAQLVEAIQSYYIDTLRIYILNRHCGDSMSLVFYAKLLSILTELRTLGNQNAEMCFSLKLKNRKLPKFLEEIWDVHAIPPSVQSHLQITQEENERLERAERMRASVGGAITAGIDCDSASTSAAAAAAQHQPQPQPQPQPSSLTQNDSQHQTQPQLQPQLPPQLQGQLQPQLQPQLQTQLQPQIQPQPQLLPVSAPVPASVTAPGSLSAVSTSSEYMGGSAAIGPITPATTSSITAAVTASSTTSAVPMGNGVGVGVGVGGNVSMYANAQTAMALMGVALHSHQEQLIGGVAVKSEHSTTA
T1 sequence (P20153 1-508 partner): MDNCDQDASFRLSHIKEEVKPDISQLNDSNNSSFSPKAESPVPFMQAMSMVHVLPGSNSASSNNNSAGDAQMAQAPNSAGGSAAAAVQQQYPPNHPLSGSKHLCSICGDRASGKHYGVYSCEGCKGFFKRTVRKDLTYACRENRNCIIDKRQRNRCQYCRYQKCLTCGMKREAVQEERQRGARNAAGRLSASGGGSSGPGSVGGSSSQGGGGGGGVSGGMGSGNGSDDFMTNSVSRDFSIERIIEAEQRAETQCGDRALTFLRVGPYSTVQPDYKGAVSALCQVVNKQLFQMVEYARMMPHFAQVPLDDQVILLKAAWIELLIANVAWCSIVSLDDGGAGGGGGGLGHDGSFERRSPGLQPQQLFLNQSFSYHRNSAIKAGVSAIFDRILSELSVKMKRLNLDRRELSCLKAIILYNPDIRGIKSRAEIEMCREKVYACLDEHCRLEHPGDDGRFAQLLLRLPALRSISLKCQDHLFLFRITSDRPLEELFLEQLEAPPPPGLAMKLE
Excerpt: (§1) Control of target polypeptide expression by various receptor polypeptides, including the chimeric receptor polypeptides of the present invention, can be shown by simultaneously transforming plant cells with the necessary gene constructions using high velocity microprojectile bombardment, followed by biochemical assay for the presence of the target polypeptide. The necessary gene constructions comprise a first receptor expression cassette which encodes a first receptor polypeptide and a second receptor expression cassette which encodes a second receptor polypeptide. In addition, a target expression cassette which-encodes a target polypeptide is also necessary (FIG. 1).
(§2) The expression cassettes were simultaneously delivered to maize suspension cells cultured in liquid N6 medium (Chu et al. Scientia Sinica XVIII:659-668, 1975) by high velocity microprojectile bombardment using standard techniques of DNA precipation onto microprojectiles and high velocity bombardment driven by compressed helium (PDS-1000/He, BioRad, Hercules, Calif.). […] Target polypeptide expression was detected by assaying the extract for the presence of the product encoded by the target expression cassette. […]

[3] = molecular target: T2, receptor polypeptides GAL4-EcR^330-825-C1 and VP16-USP (Drosophila melanogaster, UniProt P34021); test: Luciferase reporter transactivation, 35S/GAL4-EcR^330-825-C1 + 35S/VP16-USP with (GAL4)10-Bz1/Luc in maize cells; format: cell-based; conditions: 10 μM ligand, approximately 48 hours
T2 construct: expressed in transfected cells; host or cells: maize suspension cells (microprojectile bombardment)
Excerpt: as §1, §2

[4] = molecular target: T3, receptor polypeptide USP and chimeric receptor polypeptide EcR^227-825-C1 (Drosophila melanogaster, UniProt P34021); test: Luciferase reporter transactivation, 35S/USP + 35S/EcR^227-825-C1 with (EcRE)6-Bz1/Luc in maize cells; format: cell-based; conditions: 10 μM ligand, 48 hours, 35S/USP + 35S/EcR^227-825-C1, (EcRE)6-Bz1/Luc
T3 construct: expressed in transfected cells; host or cells: maize suspension cells (microprojectile bombardment)
Excerpt: as §1, §2

[5] = molecular target: T4, receptor polypeptides GAL4-EcR^330-825-C1 and USP-VP16 (UniProt P34021); test: Luciferase reporter transactivation, 35S/GAL4-EcR^330-825-C1 + 35S/USP-VP16 with (GAL4)10-Bz1/Luc in maize cells; format: cell-based, Drosophila; conditions: 10 μM ligand, approximately 48 hours, 35S/GAL4-EcR^330-825-C1 + 35S/USP-VP16, (GAL4)10-Bz1/Luc
T4 construct: expressed in transfected cells; host or cells: maize suspension cells (microprojectile bombardment)
Excerpt: as §1, §2

[6] = molecular target: T5, receptor polypeptides GAL4-EcR^330-878 and USP-VP16 (Drosophila melanogaster, UniProt P34021); test: Luciferase reporter transactivation, 35S/GAL4-EcR^330-878 + 35S/USP-VP16 with (GAL4)10-Bz1/Luc in maize cells; format: cell-based
T5 construct: expressed in transfected cells; host or cells: maize suspension cells (microprojectile bombardment)
Excerpt: as §1, §2

[7] = molecular target: T6, receptor polypeptide EcR and chimeric receptor polypeptide VP16-USP (Drosophila melanogaster, UniProt P34021); format: cell-based; conditions: 48 hours, maize cells, 35S/EcR + 35S/VP16-USP, (EcRE)6-Bz1/Luc
T6 construct: expressed in transfected cells; host or cells: maize suspension cells (microprojectile bombardment)
T6 sequence (P34021 1-878): T1 sequence (P34021 1-878)
Excerpt: as §1
The expression cassettes were simultaneously delivered to maize suspension cells cultured in liquid N6 medium (Chu et al. Scientia Sinica XVIII:659-668, 1975) by high velocity microprojectile bombardment using standard techniques of DNA precipation onto microprojectiles and high velocity bombardment driven by compressed helium (PDS-1000/He, BioRad, Hercules, Calif.). Transfected cells were incubated in liquid suspension in the presence of the appropriate chemical ligand for approximately 48 hours in N6 media After incubation, the transformed cells were harvested then homogenized at 0° C. Debris in the extracts was removed by centrifugation at 10,000 g at 4° C. for 5 minutes. Target polypeptide expression was detected by assaying the extract for the presence of the product encoded by the target expression cassette. One commonly used coding sequence for the target polypeptide when testing control of expression by the receptor polypeptides in the presence of a chemical ligand is firefly luciferase. The activity of firefly luciferase is determined by quantitating the chemiluminescence produced by luciferase catalyzed […] of luciferin using ATP as substrate (Promega Luciferase Kit, cat. no. E1500), using an Analytical Luminescence Model 2001 luminometer. […]

GAL4-EcR^330-878 chimeric receptor polypeptide (from UniProt P04386 1-147; P34021 330-878)
Luciferase Activity (light units), (GAL4)10-Bz1/Luc target cassette in maize cells, with 10 uM RH5992 [1]: 131000 light units
Luciferase Activity (light units), (GAL4)10-Bz1/Luc target cassette in maize cells, without RH5992 [1]: 3590 light units
level of expression of the target polypeptide luciferase with RH5992 over that in the absence of chemical ligand [1]: 36 fold

CCc1ccc(C(=O)NN(C(=O)c2cc(C)cc(C)c2)C(C)(C)C)cc1 [RH5992, tebufenozide]
Luciferase Activity (light units) ([2]; 10 μM ligand): 860 light units
Luciferase Activity (light units) [3]: 11,069 light units
Luciferase Activity (light units) [4]: 24,631 light units
Luciferase Activity (light units) [5]: 37,579 light units
level of expression of luciferase above that observed in the absence of chemical ligand ([6]; 10 μM RH5992, GAL4-EcR^330-878 + USP-VP16, maize cells): 36 fold
Luciferase Activity (light units) ([6]; 10 μM ligand, approximately 48 hours, maize cells, 35S/GAL4-EcR^330-878 + 35S/USP-VP16, (GAL4)10-Bz1/Luc): 130,601 light units
Luciferase Activity (light units) ([7]; 10 μM ligand): 7,003 light units

C[C@H]([C@H](O)CCC(C)(C)O)[C@H]1CC[C@@]2(O)C3=CC(=O)[C@@H]4C[C@@H](O)[C@@H](O)C[C@]4(C)[C@H]3CC[C@]12C [ecdysone]
Luciferase Activity (light units) ([7]; 1 μM ligand): 7,420 light units

CC(C)CC[C@@H](O)[C@](C)(O)[C@H]1CC[C@@]2(O)C3=CC(=O)[C@]4(O)C[C@@H](O)[C@@H](O)C[C@]4(C)[C@H]3[C@H](O)C[C@]12C [Muristerone, muristerone]
Luciferase Activity (light units) ([2]; 2 μM ligand): 1351 light units
Luciferase Activity (light units) ([7]; 2 μM ligand): 12,374 light units
